{"source": "patent US20110269755A1", "about": "“COMPOSITIONS AND METHODS FOR TREATING VASCULAR, AUTOIMMUNE, AND INFLAMMATORY DISEASES” (Aspreva International Ltd., priority 2006, published 2011)", "key": {"[1]": {"system": "Ldlr−/− mice", "assay": "Atherosclerosis in Ldlr−/− mice on Western-type diet, plaque area at the aortic root, MMF alone", "type": "in vivo", "conditions": "for reduction of atherosclerosis (AS), percentage of aortic sinus occluded by plaque: 12 weeks", "excerpt": "(§1) Additional secondary endpoints examined were plasma levels of cholesterol, HDL cholesterol, triglycerides, and phospholipids."}, "[2]": {"system": "antibody response to sheep red blood cells", "conditions": "mice; cited from earlier work"}, "[3]": {"system": "endothelial nitric oxide synthase (eNOS)", "conditions": "in vitro, cited from earlier work"}, "[4]": {"system": "Ldlr−/− mice", "assay": "Serum/plasma lipid levels in Ldlr−/− mice on Western-type diet, MMF alone", "type": "in vivo", "excerpt": "as §1"}, "[5]": {"conditions": "cited from earlier work"}, "[6]": {"conditions": "following oral or intravenous administration; cited from earlier work"}, "[7]": {"system": "allograft survival", "conditions": "mice; cited from earlier work"}}, "note": "Entries after “also recorded” stand apart in the source; their conditions may differ."}
{"smiles": "COc1c(C)c2c(c(O)c1C/C=C(\\C)CCC(=O)O)C(=O)OC2", "note": "[MPA, mycophenolic acid]", "values": [{"measurement": "trend in aortic root lesions as a function of serum MPA levels (linear regression)", "setting": "[1]; Ldlr−/− mice given MMF", "value": "statistically significant decreasing trend"}, {"measurement": "ED50 for inhibiting the antibody reaction", "setting": "[2]", "value": "about 33 mg/kg/day"}]}
{"smiles": "CC[C@H](C)C(=O)O[C@H]1C[C@@H](C)C=C2C=C[C@H](C)[C@H](CC[C@@H]3C[C@@H](O)CC(=O)O3)[C@H]21", "note": "[lovastatin]", "values": [{"measurement": "upregulation of eNOS expression", "setting": "[3]; cholesterol clamped conditions", "value": "almost fourfold"}, {"measurement": "downregulation of eNOS by oxidized LDL", "setting": "[3]", "value": "completely prevent"}]}
{"smiles": "COc1c(C)c2c(c(O)c1C/C=C(\\C)CCC(=O)OCCN1CCOCC1)C(=O)OC2", "note": "[MMF, morpholinoethyl E-6-(1,3-dihydro-4-hydroxy-6-methoxy-7-methyl-3-oxo-5-isobenzofuranyl)-4-methyl-4-hexenoate]", "values": [{"measurement": "reduction of atherosclerosis (AS), percentage of aortic sinus occluded by plaque", "setting": "[1]; MMF 6 mg/kg/day in diet, male Ldlr−/− mice", "value": 18, "unit": "%"}, {"measurement": "reduction of atherosclerosis (AS), percentage of aortic sinus occluded by plaque", "setting": "[1]; MMF 15 mg/kg/day in diet, male Ldlr−/− mice", "value": 30, "unit": "%"}, {"measurement": "reduction of atherosclerosis (AS), percentage of aortic sinus occluded by plaque", "setting": "[1]; MMF 30 mg/kg/day in diet, male Ldlr−/− mice", "value": 28, "unit": "%"}, {"measurement": "reduction of atherosclerosis (AS), percentage of aortic sinus occluded by plaque", "setting": "[1]; MMF 100 mg/kg/day in diet, male Ldlr−/− mice", "value": 64, "unit": "%"}, {"measurement": "dose response of the reduction of atherosclerosis", "setting": "[1]; MMF 6, 15, 30 and 100 mg/kg/day, male Ldlr−/− mice", "value": "dose-dependent"}, {"measurement": "effect on atherosclerosis / atheromatous plaques", "setting": "[1]; MMF alone, doses lower than used for preventing organ rejection, Ldlr−/− mice", "value": "reduce atherosclerosis; also recorded: reduction of atheromatous plaques"}, {"measurement": "HDL cholesterol levels", "setting": "[4]; Ldlr−/− mice", "value": "no effect"}, {"measurement": "total cholesterol levels", "setting": "[4]; Ldlr−/− mice", "value": "no effect"}, {"measurement": "serum cholesterol levels", "setting": "[4]; male Ldlr−/− mice", "value": "did not lower"}, {"measurement": "serum phospholipid levels", "setting": "[4]; male Ldlr−/− mice", "value": "lower; also recorded: decreases"}, {"measurement": "serum triglyceride levels", "setting": "[4]; male Ldlr−/− mice", "value": "lower; also recorded: decreases"}, {"measurement": "solubility", "setting": "[5]; in 5% dextrose solution", "value": 65.8, "unit": "mg/mL"}, {"measurement": "solubility in water", "setting": "[5]; water", "value": "insoluble"}, {"measurement": "metabolism to the active metabolite MPA", "setting": "[6]", "value": "rapidly and completely metabolized"}, {"measurement": "effective dose for in vivo prolongation of allograft survival", "setting": "[7]", "value": "about 80 mg/kg/day"}]}
